EP0934745B1, “Use of androsterone derivatives for inhibiting DNA binding of ap-1 and airway smooth muscle proliferation” (CHARLOTTE-MECKLENBURG HOSPITAL doing business as Carolinas …, priority 1998, dated 1999)

Tested on: p21^ras
Test: Immunoblot of p21ras in membranes of cultured airway smooth muscle cells
Format: cell-based, rat
Settings: 10% FBS + 10 µM, 24 hours (Figure 6B)
Description: To determine if 16α-bromoepiandrosterone reduced cellular proliferation by interfering with mevalonic acid synthesis, cells were stimulated with FBS and grown in the presence or absence of 16α-BrEA, with or without addition of 6 mM DL-mevalonic acid lactone to growth medium. After 36 hours growth was measured by MTT reduction. To evaluate whether isoprenylation and membrane localization of Ras was impaired, confluent cells on 75-cm^2 Petri dishes were growth arrested for 24 hours in 0.5% FBS and DMEM with and without 16α-BrEA or DMSO vehicle. Some dishes were then stimulated 30 minutes with 10% FBS in DMEM. Cells were lysed, membranes were isolated and immunoblotting was performed as described below to determine if treatment with DHEA and 16α-BrEA depleted p21^ras.
To determine if DHEA or its analogs induced programmed cell death, confluent cultures in 6 well plastic plates were treated with 50 or 250 µM DHEA, 10 or 50 µM 16α-BrEA, or vehicle (25 µl DMSO). After 2 hours cells were washed twice with DPBS and scraped on ice into 1.5 ml microfuge tubes and centrifuged 250 g for 5 minutes at 4°C. […] The linear increase in absorbance at 340 nm was monitored at 25°C for 300 seconds. Activity was expressed as units/mg protein, where 1.0 unit will oxidase 1.0 µmole of G6P to 6-phospho-D-gluconate per min in the presence of NADP. Protein was measured using the BCA protein assay (Rockford, IL). […]

C[C@]12CC[C@H](O)C[C@@H]1CC[C@@H]1[C@@H]2CC[C@]2(C)C(=O)[C@H](Br)C[C@@H]12 [16α-BrEA, 16α-bromoepiandrosterone]
p21^ras in membranes of cultured airway smooth muscle cells: does not deplete p21^ras
